This is an account of results in ChEMBL document CHEMBL5137022, “Antitumor Activity of Rutaecarpine in Human Colorectal Cancer Cells by Suppression of Wnt/β-Catenin Signaling” (J Nat Prod, 2022).

In one data set the test system is SW480. As to the kind of experiment: Antiproliferative activity against human SW480 cells harboring wild type beta-catenin assessed as reduction in cell viability measured after 72 hrs by SRB assay. It is filed as functional, cell-based. Particulars: SW480, 72 h. For orientation: In SRB staining, fixed cells bind dye roughly in proportion to their protein.
A further data set has as its system HCT-15. Nature of the data set: Antiproliferative activity against human HCT-15 cells harboring wild type beta-catenin assessed as reduction in cell viability measured after 72 hrs by SRB assay. Particulars: HCT-15, 72 h. It is filed as functional, cell-based.
A further data set has as its system LS174T. As to the kind of experiment: Antiproliferative activity against human LS174T cells harboring beta-catenin mutant assessed as reduction in cell viability measured after 72 hrs by SRB assay. It is filed as functional, cell-based.
The next data set relates to HCT-116. Nature of the data set: Antiproliferative activity against human HCT-116 cells harboring beta-catenin mutant assessed as reduction in cell viability measured after 72 hrs by SRB assay. Particulars: HCT-116, 72 h. It is filed as functional, cell-based.
The subject of a further data set is RKO. As to the kind of experiment: Antiproliferative activity against human RKO cells harboring wild type beta-catenin assessed as reduction in cell viability measured after 72 hrs by SRB assay. It counts as functional, cell-based.
Another data set has as its system CCD-841CoN. Nature of the data set: Antiproliferative activity against human CCD-841CoN cells assessed as reduction in cell viability measured after 72 hrs by SRB assay. It is filed as functional, cell-based.
The next data set has as its system CCD-18Co. Nature of the data set: Antiproliferative activity against human CCD-18Co cells assessed as reduction in cell viability measured after 72 hrs by SRB assay. It counts as functional, cell-based.
The nature of data set [1]: Toxicity in BALB/c nude mouse xenografted with human LS174T cells assessed as effect on body weight at 10 to 30 mg/kg, ip administered 3 times per week for 21 days. It counts as organism-based. Particulars: in vivo, 504 h, dose 10-30 mg/kg, time 21 day.

Usually IC50 stands for the concentration needed to halve the response being measured. As to `COc1cc([C@@H]2c3cc4c(cc3[C@@H](O[C@@H]3O[C@@H]5CO[C@@H](C)O[C@H]5[C@H](O)[C@H]3O)[C@H]3COC(=O)[C@H]23)OCO4)cc(OC)c1O` [ETOPOSIDE], the IC50 in the data set with SW480 stood at 800 nM; with HCT-15, 1800 nM; with LS174T it was 900 nM; in the data set with HCT-116, 500 nM; with RKO, 1900 nM; in the data set with CCD-841CoN it was 7600 nM. Further, in the data set with CCD-18Co, the IC50 amounted to 20300 nM.

As to `CCc1c2c(nc3ccc(OC(=O)N4CCC(N5CCCCC5)CC4)cc13)-c1cc3c(c(=O)n1C2)COC(=O)[C@]3(O)CC` [IRINOTECAN], the IC50 worked out at 3800 nM in the data set with SW480; 2700 nM in the data set with HCT-15; 700 nM in the data set with LS174T; 600 nM in the data set on HCT-116; 700 nM with RKO; 13200 nM in the data set on CCD-841CoN. Besides, in the data set on CCD-18Co, the IC50 worked out at 18500 nM. Besides, the Activity entry in data set [1] is recorded as “Toxic”.
